Reference: patent US10183015B2, “Heterocyclic compounds and methods of use” (Medivation Technologies LLC, priority 2015, dated 2019)
Several values for one entry are separate records, joined by “and”; a condition that tells them apart may be missing. Identical values can stand only once.

Tests used:
Type in all cases: in vivo
[1] = system: Coll1a1; assay: Short-term Paigen-diet NASH mouse model: hepatic Coll1a1 (collagen 1α1) gene expression (RT-qPCR); set-up: key to Fibrosis gene expression Coll1a1: Dct: Ct of gene minus Ct of 18S reference; key to Fibrosis gene expression Coll1a1: 2DDct: expression relative to vehicle group, 2^-ΔΔCt method, 18S-normalized; settings: 21 days
Protocol: To investigate whether Compound #37 prevents the development of pathology associated with NASH and steatosis in an acute exploratory disease model, a study was conducted using a diet-induced acute liver steatosis model in mice. As described below, in this study, C57BL/6J mice were initiated on the Paigen diet and simultaneously treated with Compound #37 (5, 20, and 40 mg/kg/day) or vehicle control (20% HPβCD 10 mL/kg/day) by oral gavage for 21 days.
After acclimation, 8-week old male C57Bl/6J mice (Charles River) weighing about 25 g were randomized in 4 groups according their body weight and treated once daily around noon by oral gavage with vehicle, or Compound #37 at various for 21 days as follows: Group 1: vehicle-20% (2-hydroxypropyl)-β-cyclodextrin (HP-β-CD) (n=10); Group 2: Compound #37, 5 mg/kg (n=10) Group 3: Compound #37, 20 mg/kg (n=10) Group 4: Compound #37, 40 mg/kg (n=10). During the treatment period, body weight and food intake (measured over 24h) were measured 3 times per week and once a week, respectively. During the acclimation, all mice were fed a standard diet (Special Diets Services RM1 (E), product no. 801492) and tap water ad libitum. After the acclimation period, mice were fed until the end of the experiment with a 60% high fat Paigen diet (60 kcal % fat, 1.25% cholesterol, and 0.5% cholate; D11061901, Research Diet) and tap water ad libitum.
(§1) Gene expression analysis. Hepatic expression levels of genes involved in lipid metabolism (FAS, SREBP1, ACC1, SCD1), cholesterol metabolism (HMG-CoAR, LDLR), SREBP proteolysis (SCAP, INSIG1), ER stress (PERK), oxidative stress (NRF2), inflammation (MCP-1), and fibrosis (collagen 1α1) were quantified by RTqPCR. Expression level was normalized to 18S gene expression and relative expression to vehicle group was calculated with the […] method.

[2] = system: leptin; assay: DIN mouse model: plasma leptin; settings: for plasma leptin day 70: day 70, 20 mg/kg
Protocol: (§2) Male C57Bl/6J mice (8 weeks old) were housed in enriched ventilated cages (31×12.5×12.7 cm) throughout the experimental phase. Animals' cages litters were changed at least once a week. Animal were housed 5 per cage on inverted 12-hour light cycle (at 09:00 am lights off), 22±2° C. and 55±10% relative humidity. The acclimation period was 20 days. During the acclimation period, all mice were fed a standard diet (RM1 (E) 801492, SDS) and tap water ad libitum. After the acclimation period, mice were fed with the DIN diet (60% fat, cholesterol enriched) and fructose-enriched tap water ad libitum until the end of the experiment.
(§3) At 6 weeks of diet, mice were 4-hour fasted (09:00 am to 1:00 pm) and blood (150 μl/EDTA) was collected at 01:00 pm by retro-orbital bleeding under isoflurane anesthesia. Mice were then allocated in 2 homogenous groups (n=12/group) according to their plasma levels of ALT (average levels: 685U/L), AST (average levels: 627U/L) and HOMA-IR index (average value: 4.7), into 2 homogenous groups (see values at day 0 in Tables 15A and 15B ALT/AST and Tables 16A and 16B for HOMA-IR). Mice were then treated once daily by oral gavage with vehicle (Group 1) or Compound #37 at 20 mg/kg (Group 2) for 70 days.
To investigate whether Compound #37 improves pre-existing steatosis/NASH pathology, a study was conducted using a 16-week diet-induced NASH mouse model. In this model, mice develop steatosis that progresses with inflammation and fibrosis that mimic many of the observed pathologies in human nonalcoholic fatty liver disease (NAFLD) and NASH (Hebbard & George, 2010). For 6 weeks, mice were fed a high-fat, high-cholesterol diet and provided drinking water containing fructose to induce liver pathology (Charlton et al, 2011). […]

[3] = system: INSIG1; assay: DIN mouse model: hepatic INSIG1 gene expression; set-up: key to 2^DDct: expression relative to vehicle group, normalized to 18S; settings: for 2^DDct / DDct / Dct / INSIG1: Gene Expression: INSIG1, 20 mg/kg group; for 18S: Gene Expression: INSIG1 table, 18S reference, 20 mg/kg group
Protocol: as §1, §2, §3
(§4) Hepatic expression levels of genes involved in lipid (FAS, SREBP1, ACC1, SCD1), cholesterol metabolism (HMG-CoAR, LDLR), in SREBP proteolysis (SCAP, INSIG1), in ER stress (PERK), oxidative stress (NRF2), and inflammation (MCP-1) were not changed. However, expression of collagen 1α1, involved in liver fibrosis, was reduced by 66% in mice treated with Compound #37 (p<0.05 vs. vehicle).

[4] = system: NRF2; assay: DIN mouse model: hepatic NRF2 gene expression; settings: liver, 20 mg/kg group
Protocol: as §1, §2, §3, §4

[5] = system: MCP-1; assay: DIN mouse model: hepatic MCP-1 gene expression; settings: liver, 20 mg/kg group
Protocol: as §1, §2, §3, §4

[6] = individual animals, normalised to 18S, 20 mg/kg
[7] = individual animals, vs vehicle mean, 20 mg/kg

CC(C)Cc1cc(-c2nc(-c3ccc(NS(=O)(=O)C(F)(F)F)cc3Cl)cs2)ccn1 [Compound 37, N-(3-chloro-4-(2-(2-isobutylpyridin-4-yl)thiazol-4-yl)phenyl)-1,1,1-trifluoromethanesulfonamide]
Fibrosis gene expression Coll1a1: 2DDct ([1]; 5 mg/kg, group mean, n 10): 0.88 | Fibrosis gene expression Coll1a1: Coll1a1 ([1]; 5 mg/kg, group mean, n 10): 27.2 | Fibrosis gene expression Coll1a1: DDct ([1]; 5 mg/kg, group mean, n 10): 0.84 | Fibrosis gene expression Coll1a1: Dct ([1]; 5 mg/kg, group mean, n 10): 15 | Fibrosis gene expression Coll1a1: 2DDct ([1]; 5 mg/kg, individual animals): 0.86 and 0.27 and 0.96 and 0.69 and 0.15 and 0.05 and 1.75 and 2.26 and 1.2 and 0.57 | Fibrosis gene expression Coll1a1: Coll1a1 ([1]; 5 mg/kg, individual animals): 27.81 and 29.15 and 25.8 and 28.03 and 28.92 and 31.82 and 24.93 and 24.75 and 25.01 and 26.07 | Fibrosis gene expression Coll1a1: DDct ([1]; 5 mg/kg, individual animals): 0.21 and 1.9 and 0.05 and 0.54 and 2.75 and 4.33 and −0.81 and −1.18 and −0.27 and 0.81 | Fibrosis gene expression Coll1a1: Dct ([1]; 5 mg/kg, individual animals): 14.4 and 16.04 and 14.19 and 14.68 and 16.89 and 18.47 and 13.33 and 12.96 and 13.87 and 14.95 | Fibrosis gene expression Coll1a1: 2DDct ([1]; 20 mg/kg, group mean, n 5): 0.68 | Fibrosis gene expression Coll1a1: Coll1a1 ([1]; 20 mg/kg, group mean, n 6): 26.6 | Fibrosis gene expression Coll1a1: DDct ([1]; 20 mg/kg, group mean, n 6): 0.24 | Fibrosis gene expression Coll1a1: Dct ([1]; 20 mg/kg, group mean, n 6): 14.4 | Fibrosis gene expression Coll1a1: 2DDct ([1]; 20 mg/kg, individual animals): 0.28 and 0.85 and 0.66 and 1 and 0.61 and 3.91* | Fibrosis gene expression Coll1a1: Coll1a1 ([1]; 20 mg/kg, individual animals): 28.9 and 26.66 and 26.93 and 27.17 and 26.34 and 23.43 | Fibrosis gene expression Coll1a1: DDct ([1]; 20 mg/kg, individual animals): 1.85 and 0.23 and 0.59 and 0 and 0.71 and −1.97 | Fibrosis gene expression Coll1a1: Dct ([1]; 20 mg/kg, individual animals): 15.99 and 14.37 and 14.73 and 14.14 and 14.85 and 12.17 | plasma leptin reduction ([2]; 20 mg/kg, end of the treatment period, vs. vehicle): 38% | plasma leptin day 70 ([2]; group mean, n 11): 265 pg/mL | plasma leptin day 70 ([2]; individual animals): 454 pg/mL and 330 pg/mL and 202 pg/mL and 280 pg/mL and 341 pg/mL and 144 pg/mL and 294 pg/mL and 46 pg/mL and 269 pg/mL and 374 pg/mL and 187 pg/mL | 2^DDct ([3]; individual animal): 2.07 and 2.24 and 0.78 (2×) and 1.54 and 1.51 and 1.65 and 1.45 and 1.43 and 0.46 and 2.84 | DDct ([3]; individual animal): −1.05 and −1.17 and 0.36 (2×) and −0.63 and −0.60 and −0.73 and −0.54 and −0.52 and 1.13 and −1.51 | Dct ([3]; individual animal): 9.85 and 9.73 and 11.26 (2×) and 10.27 and 10.3 and 10.17 and 10.36 and 10.38 and 12.03 and 9.39 | INSIG1 ([3]; individual animal): 22.4 and 22.28 and 24.1 and 22.7 and 22.65 and 22.76 (2×) and 22.09 and 22.89 and 23.58 and 21.74 | 2^DDct ([3]; mean, n 11): 1.52 | DDct ([3]; mean, n 11): −0.44 | Dct ([3]; mean, n 11): 10.5 | INSIG1 ([3]; mean, n 11): 22.7 | 18S ([3]; individual animal, 20 mg/kg): 12.55 (2×) and 12.84 and 12.43 and 12.35 (2×) and 12.59 and 11.73 and 12.51 and 11.5 and 11.55 | 18S ([3]; mean, n 11): 12.3 | NRF2 Dct [4, 6]: 10.62 and 10.7 and 12.57 and 11.27 and 11.31 and 10.88 and 11.1 and 10.74 and 12.23 and 11.89 and 9.9 | NRF2 2^DDct [4, 7]: 1.34 and 1.27 and 0.35 and 0.85 and 0.83 and 1.12 and 0.96 and 1.23 and 0.44 and 0.56 and 2.21 | NRF2 DDct [4, 7]: −0.42 and −0.34 and 1.53 and 0.23 and 0.27 and −0.16 and 0.06 and −0.3 and 1.19 and 0.85 and −1.14 | NRF2 (Ct) ([4]; individual animals, 20 mg/kg): 23.17 and 23.25 (2×) and 25.41 and 23.7 and 23.66 and 23.47 and 22.83 and 23.73 and 23.44 and 22.25 | NRF2 2^DDct ([4]; mean, n 11): 1.01 | NRF2 (Ct) ([4]; mean, n 11): 23.5 | NRF2 DDct ([4]; mean, n 11): 0.16 | NRF2 Dct ([4]; mean, n 11): 11.2 | MCP-1 Dct [5, 6]: 14.34 and 13.63 and 15.61 and 13.59 and 13.54 and 13.66 and 14.89 and 16.32 and 15.5 and 15.74 and 11.79 | MCP-1 2^DDct [5, 7]: 0.61 and 0.99 and 0.25 and 1.02 and 1.06 and 0.97 and 0.41 and 0.15 and 0.27 and 0.23 and 3.55 | MCP-1 DDct [5, 7]: 0.72 and 0.01 and 1.99 and −0.03 and −0.08 and 0.04 and 1.27 and 2.7 and 1.88 and 2.12 and −1.83 | MCP-1 (Ct) ([5]; individual animals, 20 mg/kg): 26.89 and 26.18 and 28.45 and 26.02 and 25.89 and 26.25 and 26.62 and 28.83 and 27 and 27.29 and 24.14 | MCP-1 2^DDct ([5]; mean, n 11): 0.87 | MCP-1 (Ct) ([5]; mean, n 11): 26.7 | MCP-1 DDct ([5]; mean, n 11): 0.80 | MCP-1 Dct ([5]; mean, n 11): 14.4
